From patent US20070191465A1, “Channel blocking compounds” (priority 2003, published 2007)
Several values for one entry are separate records, joined by “and”; a condition that tells them apart may be missing. Identical values can stand only once. Entries after “also recorded” stand apart in the source; their conditions may differ.

Columns and labels:
[1] = molecular target: T1, hSlo α subunit large conductance calcium-activated potassium (BK) channels (Homo sapiens, UniProt Q12791); experiment: Inside-out patch clamp of hSlo α subunit BK channels expressed in HEK293 cells; assay type: cell-based; details: for BK channel current as fraction of the control response: α subunit
T1 construct: expressed in transfected cells; host or cells: HEK293 (transient; co-transfected with CD4 as a marker)
T1 sequence (Q12791 whole entry): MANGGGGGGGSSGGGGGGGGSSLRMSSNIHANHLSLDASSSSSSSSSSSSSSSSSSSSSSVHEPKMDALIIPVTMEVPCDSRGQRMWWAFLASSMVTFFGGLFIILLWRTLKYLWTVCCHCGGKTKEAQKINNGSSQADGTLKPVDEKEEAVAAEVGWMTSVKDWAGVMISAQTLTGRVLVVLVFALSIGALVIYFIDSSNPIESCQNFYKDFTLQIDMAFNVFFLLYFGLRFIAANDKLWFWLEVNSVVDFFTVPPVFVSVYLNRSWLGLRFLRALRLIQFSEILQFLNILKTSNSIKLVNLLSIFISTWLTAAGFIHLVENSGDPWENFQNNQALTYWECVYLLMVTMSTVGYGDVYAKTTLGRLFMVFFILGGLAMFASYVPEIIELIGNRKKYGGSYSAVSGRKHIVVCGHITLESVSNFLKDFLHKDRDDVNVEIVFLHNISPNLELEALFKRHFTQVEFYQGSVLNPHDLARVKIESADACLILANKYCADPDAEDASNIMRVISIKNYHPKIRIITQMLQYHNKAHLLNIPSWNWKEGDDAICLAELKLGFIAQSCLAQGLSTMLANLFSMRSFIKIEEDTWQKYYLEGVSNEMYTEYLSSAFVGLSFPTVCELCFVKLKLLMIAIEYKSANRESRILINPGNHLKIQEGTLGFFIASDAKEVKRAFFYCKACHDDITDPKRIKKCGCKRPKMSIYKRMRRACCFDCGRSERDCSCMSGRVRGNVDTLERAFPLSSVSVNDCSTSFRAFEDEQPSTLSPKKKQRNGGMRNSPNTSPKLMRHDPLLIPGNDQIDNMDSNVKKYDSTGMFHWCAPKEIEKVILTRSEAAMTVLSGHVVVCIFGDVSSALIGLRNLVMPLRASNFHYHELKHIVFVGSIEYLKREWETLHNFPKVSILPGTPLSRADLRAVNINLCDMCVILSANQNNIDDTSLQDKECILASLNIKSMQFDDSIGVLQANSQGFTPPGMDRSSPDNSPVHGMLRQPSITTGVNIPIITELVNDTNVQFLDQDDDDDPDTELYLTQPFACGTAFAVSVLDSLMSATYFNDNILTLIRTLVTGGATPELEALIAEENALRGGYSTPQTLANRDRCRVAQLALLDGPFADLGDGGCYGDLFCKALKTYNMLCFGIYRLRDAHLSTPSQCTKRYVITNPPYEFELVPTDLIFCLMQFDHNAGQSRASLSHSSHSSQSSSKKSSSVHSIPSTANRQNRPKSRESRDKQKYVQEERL
Protocol: In this experiment, hSlo α subunit large conductance calcium-activated potassium (BK) channels with an N-terminal c-myc tag in the mammalian vector pcDNA (Meera et al, 1997) were transiently expressed in human embryonic kidney cells (cell type HEK293).
Human embryonic kidney cells were grown in a mix of DMEM (Dulbecco's Modified Eagle Medium, GibcoBRL Cat#12100-038) and 2.5 mM HEPES (N-[2-Hydroxyethyl]piperazine-N′-[2-ethanesulfonic acid]), supplemented with minimal essential amino acids and 10% fetal bovine serum.
Cells were subsequently plated into 24-well plates, grown to 95% confluency and transfected 24 hours later with 10 μg of hSlo and 2 μg CD4 (pcDNA) and 2 µl Lipofectamine 2000™.
Cells were plated onto cover slips 24 hours later. CD4 antibody-labelled beads were used to identify transfected cells. Macroscopic currents were recorded from excised inside-out patches at 3 days post-transfection.
A stock of 100 μM Lolitrem B was made up in dimethyl sulfoxide (DMSO). This was diluted to the appropriate concentration in electrophysiological solutions.
The bath solution that was applied to the internal side of the cell membrane of the inside-out membrane patch was (mM): 140 KMeSO3, 2 KCl, 20 HEPES (N-[2-Hydroxyethyl]piperazine-N′-[2-ethanesulfonic acid]), 5 HEDTA (N-([2-hydroxyethyl)ethylene-diaminetriacetic acid) and 3.65 CaCl2 to give 10 μM free calcium with a pH of 7.2.
The pipette solution applied to the extemal side of the cell membrane of the inside-out membrane patch was (mM): 140 KMeSO3, 2 KCl, 20 HEPES, and 2 MgCl2, with a pH of 7.2.
Macroscopic currents were recorded in an inside-out patch-clamp configuration using an amplifier, interface and data collection software. Data were filtered at 5 kHz and sampled at 20 μs intervals. Fast capacitance compensation was used to cancel the fast transient. Leak subtraction was used although the background potassium current was small.
Channels were activated by voltage pulses to +150 mV every minute in the presence of 10 μM free calcium. Control current responses were recorded over 5 minutes. Only patches that remained stable over this time were used in experiments.
Each concentration of lolitrem B was applied for 5 minutes or until the current response had stabilised and fractional block calculated as the decrease in current as a fraction of the control. The current amplitude was the mean current over the last half of the voltage pulse to +150 mV.

mice = details: known from literature (Munday-Finch); cited from earlier work
BK channel [2] = molecular target: T2, BK channel (Homo sapiens, UniProt Q12791); details: McMillan et al., 2003; cited from earlier work
T2 sequence (Q12791 whole entry): as above

[3] = molecular target: T3, α+β4 BK channels (hSlo α subunit with human β4 subunit) (Homo sapiens, UniProt Q12791); experiment: Patch clamp of α+β4 BK channels expressed in human embryonic kidney cells; assay type: cell-based; details: for h = Hill coefficient: α + β4
T3 construct: expressed in transfected cells; host or cells: HEK293 (transient)
T3 sequence (Q12791 whole entry): as above
T3 sequence (Q86W47 whole entry partner): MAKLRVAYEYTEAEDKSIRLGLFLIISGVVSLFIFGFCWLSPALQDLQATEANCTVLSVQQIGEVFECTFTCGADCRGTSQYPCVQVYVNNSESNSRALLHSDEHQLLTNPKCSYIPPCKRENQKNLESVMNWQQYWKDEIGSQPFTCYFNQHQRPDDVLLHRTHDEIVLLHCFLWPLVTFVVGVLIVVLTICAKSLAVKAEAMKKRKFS
Protocol: (§1) Current amplitude (I′) 5 minutes after addition of increasing lolitriol concentrations, shown as a fraction of the control response. Lolitriol was applied to α+β1 channels (solid circles) and to α+β4 channels (open circles). 31-epilolitrem B was applied to α+β1 channels (solid triangles) and to α+β4 channels (open triangles). Shaded triangles are data points from a single cell to which the curve was fitted. Lolitrem B was applied to hSlo channels (solid squares) a previous study and is shown for comparison. The current response was averaged over the last half of a voltage pulse to +150 mV for 50 ms, with 10 μM internal free calcium. The vertical bars show ±1 S.E.M. in 3 or more cells. The curve is a fit of a Hill-type equation to the data.
(§2) We used BK channels containing beta subunits that are expressed in smooth muscle ([…]) and brain (β4). BK channels with subunit combinations α+β1 or α+β4 were expressed in human embryonic kidney cells and their function assayed by patch clamping.
(§3) hSlo α subunit large conductance calcium-activated potassium channels in pcDNA3 (Meera et al., 1997) together with the human β4 subunit in pEGFP-N1 were transiently expressed in human embryonic kidney cells (HEK293). HEK cells were grown in a mix of DMEM (Dulbecco's Modified Eagle Medium) and 2.5 mM HEPES (N-[2-Hydroxyethyl]-piperazine-N′-[2-ethanesulfonic acid]), supplemented with minimal essential amino acids and 10% fetal bovine serum. Cells were subsequently plated onto 24-well plates, grown to 95% confluency and transfected 24 hours later with 10 μg of hSlo, 8 μg of β4 and 2 μl Lipofectamine 2000™. Cells were plated onto cover slips 24 hours later. Transfected cells expressed green fluorescent protein and were identified under UV light by their fluorescence.

α+β1 BK channels = molecular target: T4, α+β1 BK channels (Homo sapiens, UniProt Q12791); experiment: Patch clamp of α+β1 BK channels expressed in human embryonic kidney cells; assay type: cell-based; details: for IC50: IC50, α + β1, +150 mV, 10 μM internal free calcium; for h = Hill coefficient: α + β1
T4 construct: expressed in transfected cells; host or cells: human embryonic kidney cells (HEK293)
T4 sequence (Q12791 whole entry): as the sequence (Q12791 whole entry) above
T4 sequence (Q16558 whole entry partner): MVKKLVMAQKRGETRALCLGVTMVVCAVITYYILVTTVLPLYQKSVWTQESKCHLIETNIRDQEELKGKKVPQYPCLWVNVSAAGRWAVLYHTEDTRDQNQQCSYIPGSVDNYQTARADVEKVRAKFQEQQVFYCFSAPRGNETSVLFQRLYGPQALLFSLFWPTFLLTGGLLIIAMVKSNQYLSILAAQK
Protocol: as §1, §2, §3

BK channel [4] = molecular target: T2, BK channel; experiment: Degree of antagonist inhibition of BK channels, subunit composition not stated; assay type: cell-based

Molecule	tremorgenicity (mice)	BK channel current as fraction of the control response ([1]; 100 nM)	h = Hill coefficient [3]	IC50 (α+β1 BK channels)	h = Hill coefficient (α+β1 BK channels)	other results
CC(C)=CC1OC2C(OC3CCC4(C)C5(C)c6[nH]c7ccc8c(c7c6CC5CCC4(O)C34OC24)CC2C(C8=O)C(C)(C)OC2(C)C)C(C)(C)O1 (centres unmarked) [lolitrem B]	tremorgenic					inhibition of the BK channel current (in words) ([1]; 2 nM): partial inhibition; reversal of current block by wash-out ([1]; 10 nM or greater, wash-out with control solution for 30 minutes at 4 ml/min): not able to be reversed; also recorded: could not be reversed; inhibition of the BK channel current (in words) ([1]; 20 nM applied to the perfusion bath): complete inhibition; IC50 ([1]; IC50 (concentration of half maximal inhibition), α alone, voltage pulse to +150 mV, 10 μM free calcium, Hill equation fit, 11 cells): 3.7 nM and ~3.7 nM; degree of antagonist inhibition ([1]; approximately 20 nM): approximately 97%; h = Hill coefficient ([1]; α alone): 1.7
CC(C)=CCOC(C)(C)[C@H]1O[C@H]2CC[C@@]3(C)[C@@](O)(CC[C@H]4Cc5c([nH]c6ccc7c(c56)C[C@@H]5[C@@H](C7=O)C(C)(C)OC5(C)C)[C@@]43C)[C@]23O[C@@H]3[C@@H]1O [lolitrem E]	partial-tremorgenic	0.01				degree of antagonist inhibition ([1]; approximately 100 nM): approximately 100%
CC1(C)OC(C)(C)C2C(=O)c3ccc4[nH]c5c(c4c3CC21)C[C@@H]1CC[C@@]2(O)C3=CC(=O)[C@@H](C(C)(C)O)OC3CC[C@]2(C)[C@@]51C (some centres unmarked) [lolilline]	non-tremorgenic					
desoxypaxilline [reference compound]	non-tremorgenic					concentration needed for the same degree of BK inhibition as paxilline (BK channel [2]): 24 times
CC(C)=CC1OC2C(OC3CCC4(C)C5(C)c6[nH]c7ccc8c(c7c6CC5CCC4(O)C34OC24)CC2C(C8=O)C(C)(C)OC2(C)C)C(C)(C)O1 (centres unmarked) [31-epilolitrem B]	non-tremorgenic	0.06±0.02	2.2	~58 nM and 58 nM	2.7	current response as fraction of control after wash-out ([1]; after 100 nM, wash-out with control solution for 26 minutes, one experiment): 0.59; degree of antagonist inhibition (BK channel [4]; approximately 200 nM): approximately 100%
CC(C)(O)C1OC2CCC3(C)C4(C)c5[nH]c6ccc7c(c6c5CC4CCC3(O)C23OC3C1O)CC1C(C7=O)C(C)(C)OC1(C)C (centres unmarked) [lolitriol]	non-tremorgenic	0.29	2.7	~195 nM and 195 nM	2.3	BK channel current as fraction of the control response ([1]; 200 nM): 0.25; current response as fraction of control after wash-out ([1]; wash-out with control solution for 30 minutes at 4 ml/min): 0.86; concentration required to inhibit α+β4 channels compared with α+β1 channels ([3]; α+β4 versus α+β1): Twice; degree of antagonist inhibition (BK channel [4]; approximately 1000 nM): approximately 100%
